Patent publication US20110294663A1, “Herbicidal composition for tolerant or resistant corn crops” (priority 2010, published 2011)

test system: Setaria faberii; test: Greenhouse trial: herbicidal efficacy, Setaria faberii; type: in vivo; conditions: Table 5; post-emergence, 1-3-leaf stage, scoring 14 days after treatment; g of ai/ha: A1.1 100; B1.1 5; C7 15; C13 2.5; C9 12.5 alone, 2.5 in combination
Protocol: (§1) The trials were carried out under greenhouse conditions (test pots, diameter 8 cm, spray application using 300 l of water/hectare, 2 repetitions, 6 to 8 plants per pot).
(§2) Application was by post-emergence treatment; the species of the harmful plants and their stage of growth at the time of treatment are indicated in the individual results tables. The application rates of the herbicidally active compounds used on their own or in combinations are likewise listed in the individual results tables.
(§3) Scoring was by visual comparison of the treated with the untreated control pots (0-100% scale, 14 d after the application).
(§4) 4.2 Abbreviations used in Tables 4 to 8 application rate g/ai=application rate in grams of active compound per hectare • ai=active ingredient (of an active compound content of 100%) • GA=glufosinate-ammonium • GA-tolerant=corn which is tolerant to GA (GMO: LL corn) • E^C=expected value according to Colby, (E^C=A+B−A×B/100)= • =for ternary combinations: (A+B)+C−(A+B)×C/100 • Δ=difference (%) between observed value -%- vs. expected value (%) (observed value minus expected value) • examination: —observed values for (A), (B) and (A)+(B) in % • scoring: —observed value (%) greater>than E^C/E^A: ->synergism (+A) • —observed value (%) equal to =E^C/E^A->additive effect (+−Δ) • —observed value (%) smaller<than E^A/E^C->antagonism (−Δ)

With `CP(=O)(O)CCC(N)C(=O)O` (centres unmarked) [(A1.1) GA, glufosinate-ammonium] as the compound, how does the “Herbicidal efficacy % Setaria faberii” value read?
The value was 10%.

`COC(=O)c1nc(-c2ccc(Cl)c(OC)c2F)cc(N)c1Cl` [(B1.1), methyl 4-amino-3-chloro-6-(4-chloro-2-fluoro-3-methoxyphenyl)pyridine-2-carboxylate] was tested. Which “Herbicidal efficacy % Setaria faberii” value did it give?
Its value is 96%.

How did the “Herbicidal efficacy % Setaria faberii” value turn out when `CS(=O)(=O)c1ccc(C(=O)C2C(=O)CCCC2=O)c([N+](=O)[O-])c1` [(C7) mesotrione, mesotrione] was run?
The value was 0%.

For `CS(=O)(=O)c1ccc(C(=O)C2C(=O)CCCC2=O)c(Cl)c1COCC(F)(F)F` [(C9) tembotrione, tembotrione], which “Herbicidal efficacy % Setaria faberii” value is on record?
Its value is 10%.

Which “Herbicidal efficacy % Setaria faberii” value does the source give for `Cc1c(C(=O)c2cnn(C)c2O)ccc(S(C)(=O)=O)c1C1=NOCC1` [(C13) topramezone, topramezone] here?
The value was 10%.

test system: Eleusine indica; test: Greenhouse trial: herbicidal efficacy, Eleusine indica; type: in vivo; conditions: Table 8; post-emergence, 1-2-leaf stage, scoring 14 days after treatment; g of ai/ha: A1.1 100; B1.1 5; C8 0.5; isoxadifen 100; cyprosulfamide 100; C′ = isoxadifen in r19, cyprosulfamide in r23
Protocol: as §1, §2, §3, §4

`COC(=O)c1csc(C)c1S(=O)(=O)NC(=O)n1nc(OC)n(C)c1=O` [(C8) thiencarbazone-me, thiencarbazone-methyl] was tested. Which “Herbicidal efficacy % Eleusine indica” value did it give?
Its value is 10%.

For `O=C(O)C1=NOC(c2ccccc2)(c2ccccc2)C1` [(C14) isoxadifen, isoxadifen], which “Herbicidal efficacy % Eleusine indica” value is on record?
The value was 0%.

With `COc1ccccc1C(=O)NS(=O)(=O)c1ccc(C(=O)NC2CC2)cc1` [(C15) cyprosulfamide, cyprosulfamide] as the compound, how does the “Herbicidal efficacy % Eleusine indica” value read?
The value was 0%.

test system: Setaria viridis; test: Greenhouse trial: herbicidal efficacy, Setaria viridis; type: in vivo; conditions: Table 6; post-emergence, 1-3-leaf stage, scoring 14 days after treatment; g of ai/ha: A1.1 100; B1.1 5; C3 5; C11 25
Protocol: as §1, §2, §3, §4

With `CP(=O)(O)CCC(N)C(=O)O` (centres unmarked) [(A1.1) GA, glufosinate-ammonium] as the compound, how does the “Herbicidal efficacy % Setaria viridis” value read?
Its value is 5%.

`COC(=O)c1nc(-c2ccc(Cl)c(OC)c2F)cc(N)c1Cl` [(B1.1), methyl 4-amino-3-chloro-6-(4-chloro-2-fluoro-3-methoxyphenyl)pyridine-2-carboxylate] was tested. Which “Herbicidal efficacy % Setaria viridis” value did it give?
The value was 90%.

`CS(=O)(=O)c1cc(C(F)(F)F)ccc1C(=O)c1cnoc1C1CC1` [(C3) isoxaflutole, isoxaflutole] was tested. Which “Herbicidal efficacy % Setaria viridis” value did it give?
The value was 0%.

Which “Herbicidal efficacy % Setaria viridis” value does the source give for `CC(C)N(C(=O)COc1nnc(C(F)(F)F)s1)c1ccc(F)cc1` [(C11) flufenacet, flufenacet] here?
Its value is 0%.

test system: corn (GA-tolerant); test: Greenhouse trial: crop plant compatibility; type: in vivo; conditions: Table 4; post-emergence, 1-2-leaf stage, scoring 14 days after treatment; g of ai/ha: A1.1 100; B1.1 2.5 alone, 5 in combinations; C1 2.5; C2 1.25; C10 250; C4 50; C5 1; C6 2
Protocol: as §1, §3

With `CP(=O)(O)CCC(N)C(=O)O` (centres unmarked) [(A1.1) GA, glufosinate-ammonium] as the compound, how does the “Damage to crop plants (%) corn (GA-tolerant) (≦15-20% acceptable)” value (shortened to “Damage to crop plants (%) corn”) read?
The value was 0%.

How did the “Damage to crop plants (%) corn” value turn out when `N#Cc1cc(Br)c(O)c(Br)c1` [(C4) bromoxynil, bromoxynil] was run?
Its value is 0%.

Which “Damage to crop plants (%) corn” value does the source give for `C#CCN1C(=O)COc2cc(F)c(N3C(=O)C4=C(CCCC4)C3=O)cc21` [(C5) flumioxazin, flumioxazin] here?
Its value is 15%.

With `CCNc1nc(Cl)nc(NC(C)C)n1` [(C10) atrazin, atrazine] as the compound, how does the “Damage to crop plants (%) corn” value read?
Its value is 0%.

same assay, conditions: Table 5; post-emergence, 1-3-leaf stage, scoring 14 days after treatment; g of ai/ha: A1.1 100; B1.1 5; C7 15; C13 2.5; C9 12.5 alone, 2.5 in combination

Which “Damage to crop plants (%) corn” value does the source give for `CP(=O)(O)CCC(N)C(=O)O` (centres unmarked) [(A1.1) GA, glufosinate-ammonium] here?
The value was 0%.

How did the “Damage to crop plants (%) corn” value turn out when `CS(=O)(=O)c1ccc(C(=O)C2C(=O)CCCC2=O)c([N+](=O)[O-])c1` [(C7) mesotrione, mesotrione] was run?
Its value is 0%.

How did the “Damage to crop plants (%) corn” value turn out when `Cc1c(C(=O)c2cnn(C)c2O)ccc(S(C)(=O)=O)c1C1=NOCC1` [(C13) topramezone, topramezone] was run?
Its value is 0%.

same assay, conditions: Table 6; post-emergence, 1-3-leaf stage, scoring 14 days after treatment; g of ai/ha: A1.1 100; B1.1 5; C3 5; C11 25

With `CP(=O)(O)CCC(N)C(=O)O` (centres unmarked) [(A1.1) GA, glufosinate-ammonium] as the compound, how does the “Damage to crop plants (%) corn” value read?
Its value is 0%.

same assay, conditions: Table 7; post-emergence, 1-leaf stage, scoring 14 days after treatment; g of ai/ha: A1.1 100; B1.1 5; C12 50

With `CP(=O)(O)CCC(N)C(=O)O` (centres unmarked) [(A1.1) GA, glufosinate-ammonium] as the compound, how does the “Damage to crop plants (%) corn” value read?
The value was 0%.

same assay, conditions: Table 8; post-emergence, 1-2-leaf stage, scoring 14 days after treatment; g of ai/ha: A1.1 100; B1.1 5; C8 0.5; isoxadifen 100; cyprosulfamide 100; C′ = isoxadifen in r19, cyprosulfamide in r23

Which “Damage to crop plants (%) corn” value does the source give for `CP(=O)(O)CCC(N)C(=O)O` (centres unmarked) [(A1.1) GA, glufosinate-ammonium] here?
The value was 0%.

For `COC(=O)c1csc(C)c1S(=O)(=O)NC(=O)n1nc(OC)n(C)c1=O` [(C8) thiencarbazone-me, thiencarbazone-methyl], which “Damage to crop plants (%) corn” value is on record?
Its value is 0%.

`O=C(O)C1=NOC(c2ccccc2)(c2ccccc2)C1` [(C14) isoxadifen, isoxadifen] was tested. Which “Damage to crop plants (%) corn” value did it give?
The value was 0%.

With `COc1ccccc1C(=O)NS(=O)(=O)c1ccc(C(=O)NC2CC2)cc1` [(C15) cyprosulfamide, cyprosulfamide] as the compound, how does the “Damage to crop plants (%) corn” value read?
The value was 0%.

same assay, conditions: in vivo

`COC(=O)c1nc(-c2ccc(Cl)c(OC)c2F)cc(N)c1Cl` [(B1.1), methyl 4-amino-3-chloro-6-(4-chloro-2-fluoro-3-methoxyphenyl)pyridine-2-carboxylate] was tested. Which “Damage to crop plants (%) corn” value did it give?
Its value is 0%.

For `CS(=O)(=O)c1cc(C(F)(F)F)ccc1C(=O)c1cnoc1C1CC1` [(C3) isoxaflutole, isoxaflutole], which “Damage to crop plants (%) corn” value is on record?
Its value is 15%.

How did the “Damage to crop plants (%) corn” value turn out when `CC(C)N(C(=O)COc1nnc(C(F)(F)F)s1)c1ccc(F)cc1` [(C11) flufenacet, flufenacet] was run?
Its value is 0%.

With `CCOCN(C(=O)CCl)c1c(C)cccc1CC` [(C12) acetochlor, acetochlor] as the compound, how does the “Damage to crop plants (%) corn” value read?
The value was 0%.

test system: Pharbitis purpureum; test: Greenhouse trial: herbicidal efficacy, Pharbitis purpureum; type: in vivo; conditions: Table 7; post-emergence, 1-leaf stage, scoring 14 days after treatment; g of ai/ha: A1.1 100; B1.1 5; C12 50
Protocol: as §1, §2, §3, §4

Which “Herbicidal efficacy % Pharbitis purpureum” value does the source give for `CP(=O)(O)CCC(N)C(=O)O` (centres unmarked) [(A1.1) GA, glufosinate-ammonium] here?
The value was 45%.

With `COC(=O)c1nc(-c2ccc(Cl)c(OC)c2F)cc(N)c1Cl` [(B1.1), methyl 4-amino-3-chloro-6-(4-chloro-2-fluoro-3-methoxyphenyl)pyridine-2-carboxylate] as the compound, how does the “Herbicidal efficacy % Pharbitis purpureum” value read?
The value was 45%.

Which “Herbicidal efficacy % Pharbitis purpureum” value does the source give for `CCOCN(C(=O)CCl)c1c(C)cccc1CC` [(C12) acetochlor, acetochlor] here?
Its value is 10%.
